According to patent publication US12077503B2, “Substituted cyclic amides and their use as herbicides” (FMC CORPORATION, priority 2015, dated 2024):

Experiments:
Type in all cases: in vivo
corn (Zea mays) [1] = test: Test G Post-Emergence Protocol; details: Zea mays, post-emergence, 312 h; for plant injury at 15.625 g/ha: 15.625 g ai/ha, evaluated after 13 days (100=total damage to plant; 0=no damage to plant), read-out: Corn damage rating; for plant injury at 62.5 g/ha: 62.5 g ai/ha, read-out: Corn damage rating (100=total damage to plant; 0=no damage to plant); for plant injury at 62.5 g/ha / plant injury at 250 g/ha: evaluated after 13 days; for plant injury at 250 g/ha: 250 g ai/ha, read-out: damage to plant, Corn (100=total damage to plant; 0=no damage to plant)
Procedure, shortened: (§1)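 Values are percent visual injury at 13 days after treatment (0 none, 100 total). Treatment was a post-emergence spray at 15.625, 62.5 or 250 g/ha on 8-day-old pot plants kept at 24/16 °C.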

[2] = system: barnyardgrass (Echinochloa crus-galli); test: Test G Post-Emergence Protocol; details: Echinochloa crus-galli, post-emergence, 312 h; for pest or weed control at 15.625 g/ha: 15.625 g ai/ha, evaluated after 13 days (100=total damage to plant; 0=no damage to plant), read-out: Barnyardgrass damage rating; for pest or weed control at 62.5 g/ha: 62.5 g ai/ha, read-out: Barnyardgrass damage rating (100=total damage to plant; 0=no damage to plant); for pest or weed control at 62.5 g/ha / pest or weed control at 250 g/ha: evaluated after 13 days; for pest or weed control at 250 g/ha: 250 g ai/ha, read-out: damage to plant, Barnyardgrass (100=total damage to plant; 0=no damage to plant)
Procedure, shortened: as §1

[3] = system: ivy-leaved morning glory (Ipomoea hederacea); test: Test G Post-Emergence Protocol; details: Ipomoea, post-emergence, 312 h; for pest or weed control at 15.625 g/ha: 15.625 g ai/ha, evaluated after 13 days (100=total damage to plant; 0=no damage to plant), read-out: Morningglory, Ivy-leaved damage rating; for pest or weed control at 62.5 g/ha: 62.5 g ai/ha, read-out: Morningglory, Ivy-leaved damage rating (100=total damage to plant; 0=no damage to plant); for pest or weed control at 62.5 g/ha / pest or weed control at 250 g/ha: evaluated after 13 days; for pest or weed control at 250 g/ha: 250 g ai/ha, read-out: damage to plant, Morningglory, Ivy-leaved (100=total damage to plant; 0=no damage to plant)
Procedure, shortened: as §1

[4] = system: redroot pigweed (Amaranthus retroflexus); test: Test G Post-Emergence Protocol; details: Amaranthus retroflexus, post-emergence, 312 h; for pest or weed control at 15.625 g/ha: 15.625 g ai/ha, evaluated after 13 days (100=total damage to plant; 0=no damage to plant), read-out: Pigweed, Redroot damage rating; for pest or weed control at 62.5 g/ha: 62.5 g ai/ha, read-out: Pigweed, Redroot damage rating (100=total damage to plant; 0=no damage to plant); for pest or weed control at 62.5 g/ha / pest or weed control at 250 g/ha: evaluated after 13 days; for pest or weed control at 250 g/ha: 250 g ai/ha, read-out: damage to plant, Pigweed, Redroot (100=total damage to plant; 0=no damage to plant)
Procedure, shortened: as §1

[5] = system: giant foxtail (Setaria faberi); test: Test G Post-Emergence Protocol; details: Setaria faberi, post-emergence, 312 h; for pest or weed control at 15.625 g/ha: 15.625 g ai/ha, evaluated after 13 days (100=total damage to plant; 0=no damage to plant), read-out: Foxtail, Giant damage rating; for pest or weed control at 62.5 g/ha: 62.5 g ai/ha, read-out: Foxtail, Giant damage rating (100=total damage to plant; 0=no damage to plant); for pest or weed control at 62.5 g/ha / pest or weed control at 250 g/ha: evaluated after 13 days; for pest or weed control at 250 g/ha: 250 g ai/ha, read-out: damage to plant, Foxtail, Giant (100=total damage to plant; 0=no damage to plant)
Procedure, shortened: as §1

[6] = system: velvetleaf (Abutilon theophrasti); test: Test G Post-Emergence Protocol; details: Abutilon theophrasti, post-emergence, 312 h; for pest or weed control at 15.625 g/ha: 15.625 g ai/ha, evaluated after 13 days (100=total damage to plant; 0=no damage to plant), read-out: Velvetleaf damage rating; for pest or weed control at 62.5 g/ha: 62.5 g ai/ha, read-out: Velvetleaf damage rating (100=total damage to plant; 0=no damage to plant); for pest or weed control at 62.5 g/ha / pest or weed control at 250 g/ha: evaluated after 13 days; for pest or weed control at 250 g/ha: 250 g ai/ha, read-out: damage to plant, Velvetleaf (100=total damage to plant; 0=no damage to plant)
Procedure, shortened: as §1

corn (Zea mays) [7] = test: Test G Pre-Emergence Protocol; details: Zea mays, pre-emergence, 312 h, evaluated after 13 days; for plant injury at 15.625 g/ha: 15.625 g ai/ha; for plant injury at 15.625 g/ha / plant injury at 250 g/ha: read-out: Corn damage rating (100=total damage to plant; 0=no damage to plant); for plant injury at 62.5 g/ha: 62.5 g ai/ha, 100=total damage to plant, 0=no damage to plant, read-out: plant damage rating, Corn; for plant injury at 250 g/ha: 250 g ai/ha
Procedure, shortened: (§2)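 Pre-emergence spray, 15.625/62.5/250 g/ha, vehicle acetone:water 50:50 + 0.5% Tween 20, applied 1 d after sowing. Glasshouse 24/16° C, 14 h light, 65% RH, watered twice daily. Visual damage rating at 13 d, 0–100 scale.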

[8] = system: barnyardgrass (Echinochloa crus-galli); test: Test G Pre-Emergence Protocol; details: Echinochloa crus-galli, pre-emergence, 312 h, evaluated after 13 days; for pest or weed control at 15.625 g/ha: 15.625 g ai/ha, read-out: Barnyard grass damage rating (100=total damage to plant; 0=no damage to plant); for pest or weed control at 62.5 g/ha: 62.5 g ai/ha, 100=total damage to plant, 0=no damage to plant, read-out: plant damage rating, Barnyardgrass; for pest or weed control at 250 g/ha: 250 g ai/ha, read-out: Barnyardgrass damage rating (100=total damage to plant; 0=no damage to plant)
Procedure, shortened: as §2

[9] = system: ivy-leaved morning glory (Ipomoea hederacea); test: Test G Pre-Emergence Protocol; details: Ipomoea, pre-emergence, 312 h, evaluated after 13 days; for pest or weed control at 15.625 g/ha: 15.625 g ai/ha, read-out: Morning-glory, Ivy-leaved damage rating (100=total damage to plant; 0=no damage to plant); for pest or weed control at 62.5 g/ha: 62.5 g ai/ha, 100=total damage to plant, 0=no damage to plant, read-out: plant damage rating, Morningglory, Ivy-leaved; for pest or weed control at 250 g/ha: 250 g ai/ha, read-out: Morningglory, Ivy-leaved damage rating (100=total damage to plant; 0=no damage to plant)
Procedure, shortened: as §2

[10] = system: redroot pigweed (Amaranthus retroflexus); test: Test G Pre-Emergence Protocol; details: Amaranthus retroflexus, pre-emergence, 312 h, evaluated after 13 days; for pest or weed control at 15.625 g/ha: 15.625 g ai/ha; for pest or weed control at 15.625 g/ha / pest or weed control at 250 g/ha: read-out: Pigweed, Redroot damage rating (100=total damage to plant; 0=no damage to plant); for pest or weed control at 62.5 g/ha: 62.5 g ai/ha, 100=total damage to plant, 0=no damage to plant, read-out: plant damage rating, Pigweed, Redroot; for pest or weed control at 250 g/ha: 250 g ai/ha
Procedure, shortened: as §2

[11] = system: giant foxtail (Setaria faberi); test: Test G Pre-Emergence Protocol; details: Setaria faberi, pre-emergence, 312 h, evaluated after 13 days; for pest or weed control at 15.625 g/ha: 15.625 g ai/ha; for pest or weed control at 15.625 g/ha / pest or weed control at 250 g/ha: read-out: Foxtail, Giant damage rating (100=total damage to plant; 0=no damage to plant); for pest or weed control at 62.5 g/ha: 62.5 g ai/ha, 100=total damage to plant, 0=no damage to plant, read-out: plant damage rating, Foxtail, Giant; for pest or weed control at 250 g/ha: 250 g ai/ha
Procedure, shortened: as §2

[12] = system: velvetleaf (Abutilon theophrasti); test: Test G Pre-Emergence Protocol; details: Abutilon theophrasti, pre-emergence, 312 h, evaluated after 13 days; for pest or weed control at 15.625 g/ha: 15.625 g ai/ha; for pest or weed control at 15.625 g/ha / pest or weed control at 250 g/ha: read-out: Velvetleaf damage rating (100=total damage to plant; 0=no damage to plant); for pest or weed control at 62.5 g/ha: 62.5 g ai/ha, 100=total damage to plant, 0=no damage to plant, read-out: plant damage rating, Velvetleaf; for pest or weed control at 250 g/ha: 250 g ai/ha
Procedure, shortened: as §2

SMILES: CN1C[C@@H](c2ccc(NS(C)(=O)=O)cc2)[C@H](C(=O)Nc2ccccc2F)C1=O (racemic) [Compound 1416]
- plant injury at 15.625 g/ha (corn (Zea mays) [1]): 0%
- plant injury at 62.5 g/ha (corn (Zea mays) [1]): 0%
- plant injury at 250 g/ha (corn (Zea mays) [1]): 0%
- pest or weed control at 15.625 g/ha [2]: 0%
- pest or weed control at 62.5 g/ha [2]: 0%
- pest or weed control at 250 g/ha [2]: 0%
- pest or weed control at 15.625 g/ha [3]: 0%
- pest or weed control at 62.5 g/ha [3]: 0%
- pest or weed control at 250 g/ha [3]: 0%
- pest or weed control at 15.625 g/ha [4]: 0%
- pest or weed control at 62.5 g/ha [4]: 0%
- pest or weed control at 250 g/ha [4]: 0%
- pest or weed control at 15.625 g/ha [5]: 0%
- pest or weed control at 62.5 g/ha [5]: 0%
- pest or weed control at 250 g/ha [5]: 0%
- pest or weed control at 15.625 g/ha [6]: 0%
- pest or weed control at 62.5 g/ha [6]: 0%
- pest or weed control at 250 g/ha [6]: 0%
- plant injury at 15.625 g/ha (corn (Zea mays) [7]): 0%
- plant injury at 62.5 g/ha (corn (Zea mays) [7]): 0%
- plant injury at 250 g/ha (corn (Zea mays) [7]): 0%
- pest or weed control at 15.625 g/ha [8]: 0%
- pest or weed control at 62.5 g/ha [8]: 0%
- pest or weed control at 250 g/ha [8]: 0%
- pest or weed control at 15.625 g/ha [9]: 0%
- pest or weed control at 62.5 g/ha [9]: 0%
- pest or weed control at 250 g/ha [9]: 0%
- pest or weed control at 15.625 g/ha [10]: 0%
- pest or weed control at 62.5 g/ha [10]: 0%
- pest or weed control at 250 g/ha [10]: 0%
- pest or weed control at 15.625 g/ha [11]: 0%
- pest or weed control at 62.5 g/ha [11]: 0%
- pest or weed control at 250 g/ha [11]: 0%
- pest or weed control at 15.625 g/ha [12]: 0%
- pest or weed control at 62.5 g/ha [12]: 0%
- pest or weed control at 250 g/ha [12]: 0%

SMILES: CN1C[C@@H](c2ccc(C(F)(F)F)nc2)[C@H](C(=O)Nc2ccccc2F)C1=O (racemic) [Compound 1419]
- plant injury at 15.625 g/ha (corn (Zea mays) [1]): 10%
- plant injury at 62.5 g/ha (corn (Zea mays) [1]): 10%
- plant injury at 250 g/ha (corn (Zea mays) [1]): 20%
- pest or weed control at 15.625 g/ha [2]: 30%
- pest or weed control at 62.5 g/ha [2]: 50%
- pest or weed control at 250 g/ha [2]: 60%
- pest or weed control at 15.625 g/ha [3]: 0%
- pest or weed control at 62.5 g/ha [3]: 20%
- pest or weed control at 250 g/ha [3]: 10%
- pest or weed control at 15.625 g/ha [4]: 10%
- pest or weed control at 62.5 g/ha [4]: 20%
- pest or weed control at 250 g/ha [4]: 30%
- pest or weed control at 15.625 g/ha [5]: 10%
- pest or weed control at 62.5 g/ha [5]: 60%
- pest or weed control at 250 g/ha [5]: 70%
- pest or weed control at 15.625 g/ha [6]: 10%
- pest or weed control at 62.5 g/ha [6]: 10%
- pest or weed control at 250 g/ha [6]: 0%
- plant injury at 15.625 g/ha (corn (Zea mays) [7]): 0%
- plant injury at 62.5 g/ha (corn (Zea mays) [7]): 0%
- plant injury at 250 g/ha (corn (Zea mays) [7]): 50%
- pest or weed control at 15.625 g/ha [8]: 10%
- pest or weed control at 62.5 g/ha [8]: 80%
- pest or weed control at 250 g/ha [8]: 90%
- pest or weed control at 15.625 g/ha [9]: 0%
- pest or weed control at 62.5 g/ha [9]: 0%
- pest or weed control at 250 g/ha [9]: 60%
- pest or weed control at 15.625 g/ha [10]: 0%
- pest or weed control at 62.5 g/ha [10]: 0%
- pest or weed control at 250 g/ha [10]: 70%
- pest or weed control at 15.625 g/ha [11]: 10%
- pest or weed control at 62.5 g/ha [11]: 80%
- pest or weed control at 250 g/ha [11]: 90%
- pest or weed control at 15.625 g/ha [12]: 0%
- pest or weed control at 62.5 g/ha [12]: 0%
- pest or weed control at 250 g/ha [12]: 0%
